What all share (format): in vivo, mouse
Test [1] has as its system high-fat diet obese mice. In words: Fat and muscle content (magnetic resonance) of high-fat diet obese mice. The method, then:
Mice were intraperitoneally injected with DMSO or HLY72 (dissolved in DMSO) 25 μL within 2 hours before turning off the lamp. During the intragastric experiment, the high concentration of HLY72 dissolved in DMSO was dissolved in 10% cyclodextrin, and the total volume was 100 μL Volume by gavage, so that the final concentration of DMSO was less than 10%. The diet was weighed at the 3rd hour, the 6th hour, the 12th hour, and the 24th hour respectively after the lights out. The corresponding mouse body weight was also weighed at the same time before the daily administration. The fat content of mice was measured with the magnetic resonance fat content measuring instrument of the animal platform in SIBCB.
In the experiment, high-fat diets were used to feed obese mice weighing about 40 grams for 22 weeks, according to the way used in the previous 3 courses.

In test [2] the test system is high-fat diet obese mice. In words: Blood biochemical tests and liver slices of obese mice. Conditions: 20 mg/kg. The method, then: Mouse liver tissues were taken and fixed in 4% paraformaldehyde at 4° C. overnight. It was washed twice with PBS buffer solution in 30% and 50% ethanol for 30 minutes each, and stored in 70% ethanol at 4° C. (1) Gradient dehydration of ethanol: 80% ethanol for 30 minutes, 95% ethanol for 30 minutes, 100% ethanol for 15 minutes, and fresh 100% ethanol for 15 minutes. (2) Xylene transparent: ½ absolute ethanol plus ½ xylene for 15 minutes, xylene for 10 minutes, and fresh xylene for 10 minutes. (3) Wax immersion, embedding, sectioning: ½ xylene plus ½ paraffin for 30 minutes, paraffin 1 for 90 minutes, paraffin 2 for 120 minutes, paraffin 3 overnight for embedding, conventional section thickness was 4 μm, pasted on clean glass slides that have been processed, the slides were baked at 37° C. overnight, collected in a slide box and sealed at 4° C. (4) Xylene dewaxing, gradient ethanol rehydration: tissue sections were dewaxed three times with xylene, 10 minutes each time, and placed in ½ xylene plus ½ absolute ethanol for 15 minutes. After 5 minutes each of 100%, 90%, 80%, 70%, 50% and 30% ethanol, it was put in pure water for 5 minutes. (5) HE staining, filming: hematoxylin staining at room temperature for 20 minutes, rinsed under running water, color separation with 0.1% hydrochloric acid and ethanol for 1 second, rinsed under running water, after 1 minute each of 30%, 50%, 70%, 80% and 95% ethanol, it was stained with 1% eosin for 1 minute. It was put in absolute ethanol for 1 minute and dehydrated with fresh absolute ethanol twice for 5 minutes each time, it was put in ½ absolute ethanol plus ½ xylene for 15 minutes, and then xylene 1, 2, 3 for 5 minutes each time. Sealed with neutral gum and stored at room temperature in a dry place. The cell platform Olympus BX51 microscope was used for filming.
The effects on the various adverse indicators of obesity after drug administration were detected.

In test [3] the test system is lipid metabolism related genes. In words: Expression of lipid metabolism related genes in tissues (RT-PCR). As to conditions: 20 mg/kg 3 consecutive days. The method, then: Mice fed with normal diet are injected with 20 mg/kg of HLY72 for 3 consecutive days, and the white adipose tissue (A) is taken to detect fat storage, fatty acid synthesis and decomposition-related gene expression. Liver (B) is taken to detect fatty acid transport and oxidative gene expression. Muscle (C) is taken to test the fatty acid transport and oxidative gene expression (14 mice per group).
After the mice were euthanized, the corresponding tissues were immediately peeled off and quickly frozen with liquid nitrogen and stored at −80° C. For the cell sample in the 6-well petri dish, after removing the culture medium, 1 mL of Trizol was added and placed at room temperature for 10 minutes, then transferred to a 1.5 mL EP tube and stored at −80° C. When extracting tissue RNA, 1.5 mL of Trizol was added to the tissue homogenization tube containing steel balls, the tissue was removed from the −80° C. refrigerator and put into the homogenization tube to homogenize and crush. RNA was extracted by phenol-chloroform-isopropanol method. Using the Superscript™III first strand synthesis system (Invitrogen) kit, 1 μg of mRNA was reverse transcribed into cDNA, and random primers were used for reverse transcription. Quantitative SYBR green PCR kit (Takara) kit was used for quantitative PCR reaction. The instrument for PCR reaction was ABI-QuantStudio 6 Realtime PCR instrument.
After injection of HLY72 in mice, the epididymal white adipose tissue, liver and muscle tissue were taken to detect the expression of lipid metabolism related genes. […] The expression of fatty acid transporter gene FAT (CD36), FATP2, FATP5 on the liver cell membrane is increased, the expression of the transporter gene CPT1A for fatty acid entering the mitochondria and the key enzyme gene ACADM of fatty acid β-oxidation are increased (FIG. 15b). At the same time, the expression of muscle cell membrane fatty acid transporter genes FATP1 and FATP4 are increased, and the expression of the transporter gene CPT1B for fatty acid entering the mitochondria and the key enzyme gene ACADM of fatty acid β-oxidation are increased (FIG. 15c). Changes in gene expression in these tissues indicate that liver and muscle tissues have increased the use of fatty acids.

Molecules are shown by their SMILES.

`C=Cc1cccc2c1N(C)Cc1cc3c(cc1-2)OCO3` [HLY72]: in test [1] (obese mice about 40 g, high-fat diet 22 weeks, 20 mg/kg courses of injection), the weight of mice result is “significantly reduce”. In addition, in test [1] (obese mice, 20 mg/kg courses), the “increase of the proportion of muscle” value was “about 9 percentage points”. The fat content entry in test [1] (obese mice, MRI fat content measuring instrument, 20 mg/kg courses) is on record as “significantly reduced”. Moreover, in test [2], the “alanine transaminase ALT” value was “decreased”, the “aspertate aminotransferase AST” value is “does not change”, the blood glucose entry was “decreased significantly” and the cholesterol levels entry is given as “decreased significantly”. Further, the triacylglycerol result in test [2] is “decreased significantly”. For the same compound, the “fatty liver caused by high fat (liver slices)” value in test [2] (HE staining) is “well treated”. Besides, in test [3] (liver), the “expression of ACADM” value was “increased”, the “expression of CPT1A” value is reported as “increased”, the “expression of FAT (CD36)” value is “increased” and the “expression of FATP2” value is “increased”. Further, in test [3] (liver), the “expression of FATP5” value is “increased”. In test [3] (muscle), the “expression of ACADM” value is “increased”, the “expression of CPT1B” value is reported as “increased”, the “expression of FATP1” value is “increased” and the “expression of FATP4” value is recorded as “increased”. Moreover, in test [3] (white adipose tissue), the “expression of ATGL (lipolytic gene)” value is “increase”, the “expression of DGAT (fat storage gene)” value is recorded as “significantly reduced”, the “expression of FAS (fatty acid synthesis gene)” value is on record as “significantly down-regulated” and the “expression of SCD1 (fatty acid synthesis gene)” value was “significantly down-regulated”.

Values taken from patent US20200385396A1, “Compond for treatment or prevention of obesity or diseases related to obesity, and application thereof” (SHANGHAI INSTITUTES FOR BIOLOGICAL SCIENCES, CHINESE …, priority 2017, published 2020).
